Several values for one entry are separate records, joined by “and”; a condition that tells them apart may be missing. Equal values may be shown once.
Experiments:
[1] = Amount excreted in feces after oral dosing in rats; assay type: in vivo, Sprague-Dawley rats; details: rat, individual animals
[2] = Rat PK, plasma concentrations after oral dosing; assay type: in vivo, Sprague-Dawley rats
[3] = molecular target: T1, FPR1 (Homo sapiens, UniProt P21462); experiment: Inhibition of FPR1 measured as inhibition of fMLP-induced neutrophil transmigration across T84 monolayer; assay type: cell-based; details: FIG. 3B
T1 construct: endogenous in cells; host or cells: freshly isolated human neutrophils (PMNs), migrating across a T84 epithelial monolayer
T1 sequence (P21462 1-350): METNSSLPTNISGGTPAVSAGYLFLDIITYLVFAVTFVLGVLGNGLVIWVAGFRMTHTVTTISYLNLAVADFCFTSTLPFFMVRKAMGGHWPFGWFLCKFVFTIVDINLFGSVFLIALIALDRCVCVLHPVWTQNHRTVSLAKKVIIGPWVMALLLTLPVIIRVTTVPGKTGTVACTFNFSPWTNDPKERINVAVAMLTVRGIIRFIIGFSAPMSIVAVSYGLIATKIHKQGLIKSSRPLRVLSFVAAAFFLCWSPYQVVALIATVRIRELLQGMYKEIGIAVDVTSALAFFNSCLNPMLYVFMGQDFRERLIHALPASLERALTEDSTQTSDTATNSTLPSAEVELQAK
Experimental: T84 colorectal cancer cells were grown to confluence on the bottom side of 12 well polycarbonate membrane inserts of a 24 well Transwell® plate. The confluent growth of these epithelial cells results in physiologically-relevant apical (luminal) and basolateral surfaces in the transwells. Freshly isolated and prepared human neutrophils were pretreated in compound (BT051 or cyclosporine A) for 1 hour on ice.
BT051 or cyclosporine A was added to the apical surface of the monolayer. The potent neutrophil chemoattractant, N-formyl-methionyl-leucyl-phenylalanine (fMLP) (100 nM), which activates neutrophil migration via its interaction with the FPR1 protein on neutrophils, was also added to the apical side of the monolayer. The compound-treated neutrophils were then added to the basolateral side and allowed to transmigrate through the monolayer for 2 hours. The number of neutrophils migrated to the apical chamber (due to the fMLP gradient) was then assayed by determination of myeloperoxidase activity (a neutrophil biomarker). Inhibition of transmigration is indicated by lower MPO activity in the apical chamber.
T84 colorectal cancer cells are grown to confluence on the bottom side of 12 well polycarbonate membrane inserts of a 24 well Transwell® plate. The confluent growth of these epithelial cells results in physiologically-relevant apical (luminal) and basolateral surfaces in the transwells. […]

[4] = BT070 10 mg/kg orally, 0-24 h, 10 mg/kg
[5] = BT070 10 mg/kg orally, rat, individual animals, 10 mg/kg
[6] = BT070 10 mg/kg orally, rat, mean

- Amount in feces ([1]; BT070 10 mg/kg orally, 0-4 h): 561.4 ng
- % of dose excreted unchanged in feces [1, 4]: 44.6% and 9.0% and 72.2%
- Amount in feces ([1]; BT070 10 mg/kg orally, 4-8 h, 10 mg/kg): 181805.0 ng and 875239.4 ng
- Mean plasma concentration ([2]; BT070 10 mg/kg orally, rat, 0.5 h, mean): 3588.6 ng/mL
- Mean plasma concentration ([2]; BT070 10 mg/kg orally, rat, 1 h, mean): 2301.5 ng/mL
- Mean plasma concentration ([2]; BT070 10 mg/kg orally, rat, 2 h, mean): 1522.8 ng/mL
- Mean plasma concentration ([2]; BT070 10 mg/kg orally, rat, 4 h, mean): 829.6 ng/mL
- Mean plasma concentration ([2]; BT070 10 mg/kg orally, rat, 6 h, mean): 488.3 ng/mL
- Mean plasma concentration ([2]; BT070 10 mg/kg orally, rat, 8 h, mean): 293.9 ng/mL
- Mean plasma concentration ([2]; BT070 10 mg/kg orally, rat, 24 h, mean): 101.2 ng/mL
- % Extrapolation [2, 5]: 0.3% and 38.42% and 2.46%
- tmax [2, 5]: 0.50 h (2×) and 2.00 h
- % Extrapolation, Mean [2, 6]: 13.7%
- AUCinf, Mean [2, 6]: 14735.7 ng·h/mL
- AUClast, Mean [2, 6]: 12202.9 ng·h/mL
- CL_F, Mean [2, 6]: 13.5 mL/min/kg
- Cmax, Mean [2, 6]: 3711.2 ng/mL
- M.R.T. po, Mean [2, 6]: 10.8 h
- tmax, Mean [2, 6]: 1.0 h
- Mean plasma concentration ([2]; BT070 as breakdown product after BT051 10 mg/kg orally, rat, 0.5 h, mean): 3.3 ng/mL
- Cmax ([2]; BT070 as breakdown product after BT051 10 mg/kg orally, rat, individual animals): 3.3 ng/mL
- Cmax, Mean ([2]; BT070 as breakdown product after BT051 10 mg/kg orally, rat, mean): 3.3 ng/mL
- oral bioavailability of the breakdown product ([2]; BT070 following oral administration of BT051 in rats at 10 mg/kg, result in words): not orally bioavailable
- inhibition of PMN transmigration/activation ([3]; concentration not given): approximately 50%
- fMLP-mediated PMN transmigration/activation ([3]; result in words): inhibit
Compound: CC[C@@H]1NC(=O)[C@H]([C@H](O)[C@H](C)CCCCCC(=O)O)N(C)C(=O)[C@H](C(C)C)N(C)C(=O)[C@H](CC(C)C)N(C)C(=O)[C@H](CC(C)C)N(C)C(=O)[C@@H](C)NC(=O)[C@H](C)NC(=O)[C@H](CC(C)C)N(C)C(=O)[C@H](C(C)C)NC(=O)[C@H](CC(C)C)N(C)C(=O)CN(C)C1=O [BT070]
- Total amount excreted unchanged in feces [1, 4]: 1212482.2 ng and 252675.5 ng and 1891835.1 ng
- Amount in feces ([1]; BT070 10 mg/kg orally, 8-24 h, 10 mg/kg): 1030677.2 ng and 252114.1 ng and 1016595.6 ng
- Total amount excreted in feces ([1]; BT070 as breakdown product after BT051 10 mg/kg orally, 0-48 h): 36.9 µg and 33.4 µg and 41.4 µg and 38.5 µg
- Amount in feces ([1]; BT070 as breakdown product after BT051 10 mg/kg orally, 8-24 h): 31200 ng and 14300 ng and 10600 ng and 34800 ng
- Amount in feces ([1]; BT070 as breakdown product after BT051 10 mg/kg orally, 24-48 h): 5700 ng and 19100 ng and 30800 ng and 3700 ng
- plasma concentration ([2]; BT070 10 mg/kg orally, rat, 0.5 h, individual animals, 10 mg/kg): 7472.8 ng/mL and 746.7 ng/mL and 2546.3 ng/mL
- plasma concentration ([2]; BT070 10 mg/kg orally, rat, 1 h, individual animals, 10 mg/kg): 4382.8 ng/mL and 725.2 ng/mL and 1796.5 ng/mL
- plasma concentration ([2]; BT070 10 mg/kg orally, rat, 2 h, individual animals, 10 mg/kg): 2238.3 ng/mL and 1114.4 ng/mL and 1215.5 ng/mL
- plasma concentration ([2]; BT070 10 mg/kg orally, rat, 4 h, individual animals, 10 mg/kg): 1178.8 ng/mL and 861.5 ng/mL and 448.5 ng/mL
- plasma concentration ([2]; BT070 10 mg/kg orally, rat, 6 h, individual animals, 10 mg/kg): 641.5 ng/mL and 543.6 ng/mL and 280.0 ng/mL
- plasma concentration ([2]; BT070 10 mg/kg orally, rat, 8 h, individual animals, 10 mg/kg): 312.1 ng/mL and 451.6 ng/mL and 118.1 ng/mL
- plasma concentration ([2]; BT070 10 mg/kg orally, rat, 24 h, individual animals, 10 mg/kg): 12.0 ng/mL and 268.9 ng/mL and 22.8 ng/mL
- AUCinf [2, 5]: 17616.8 ng/mL*h and 19158.4* ng/mL*h and 7432.0 ng/mL*h
- AUClast [2, 5]: 17560.9 ng·h/mL and 11798.3 ng·h/mL and 7249.5 ng·h/mL
- CL_F [2, 5]: 9.5 mL/min/kg and 8.7* mL/min/kg and 22.43 mL/min/kg
- Cmax [2, 5]: 7472.8 ng/mL and 1114.4 ng/mL and 2546.3 ng/mL
- plasma concentration ([2]; BT070 as breakdown product after BT051 10 mg/kg orally, rat, 0.5 h, individual animals): 3.3 ng/mL and NQ (Not quantifiable. No peak or below limit of quantification (LOQ = 2.5 ng/mL)) (4×)
- plasma concentration ([2]; BT070 as breakdown product after BT051 10 mg/kg orally, rat, 1 h, individual animals): NQ (Not quantifiable. No peak or below limit of quantification (LOQ = 2.5 ng/mL))
- plasma concentration ([2]; BT070 as breakdown product after BT051 10 mg/kg orally, rat, 2 h, individual animals): NQ (Not quantifiable. No peak or below limit of quantification (LOQ = 2.5 ng/mL))
- plasma concentration ([2]; BT070 as breakdown product after BT051 10 mg/kg orally, rat, 4 h, individual animals): NQ (Not quantifiable. No peak or below limit of quantification (LOQ = 2.5 ng/mL))
- plasma concentration ([2]; BT070 as breakdown product after BT051 10 mg/kg orally, rat, 6 h, individual animals): NQ (Not quantifiable. No peak or below limit of quantification (LOQ = 2.5 ng/mL))
- plasma concentration ([2]; BT070 as breakdown product after BT051 10 mg/kg orally, rat, 8 h, individual animals): NQ (Not quantifiable. No peak or below limit of quantification (LOQ = 2.5 ng/mL))
- plasma concentration ([2]; BT070 as breakdown product after BT051 10 mg/kg orally, rat, 24 h, individual animals): NQ (Not quantifiable. No peak or below limit of quantification (LOQ = 2.5 ng/mL))
- detectability in plasma ([2]; rats, 10 mg/kg orally, result in words): present in the plasma in all subject rats from 15 minutes to 24 hours
